Laboratory results as given in patent US20250136576A1, “Heterocyclic Compounds and Uses Thereof” (ACEA Therapeutics, Inc., priority 2021, published 2025).

Test system: KM12-luc cells
Assay: Cell proliferation and growth inhibition assay (CCK-8) in KM12-luc
Assay type: cell-based
Details: KM12-Luc, 72 h, KM12-luc cells, treated with test compounds for 72 hrs, CCK-8 viability; read-out: NTRK IC50 in KM12-luc
In short: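 IC50 values were fitted by sigmoidal dose-response non-linear regression of CCK-8 OD450 absorbance after 1-4 hrs with reagent. Culture media were IMDM for MV-4-11, RPMI 1640 for H1975 and DMEM for KM12-luc, each with 10% FBS at 37 °C, 5% CO2.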

Compared with `COc1cnc(Nc2ccc(N3CC[C@@H](N(C)C)C3)c(NC(C)=O)c2)nc1-c1c[nH]c2c(F)cccc12` [Compound R-280, (R)—N-(2-(3-(dimethylamino)pyrrolidin-1-yl)-5-((4-(7-fluoro-1H-indol-3-yl)-5-methoxypyrimidin-2-yl)amino)phenyl)acetamide], `COc1cnc(Nc2ccc(OCCN(C)C)c(NC(C)=O)c2)nc1-c1c[nH]c2c(F)cccc12` [Compound 279, N-(2-(2-(dimethylamino)ethoxy)-5-((4-(7-fluoro-1H-indol-3-yl)-5-methoxypyrimidin-2-yl)amino)phenyl)acetamide] is 3.4-fold higher in IC50: 15.6 nM for the first, 52.6 nM for the second. The first is the more potent here.

Compared with `CN(C)CCN(C)c1ccc(Nc2ncc(C(F)(F)F)c(-c3c[nH]c4ccc(F)cc34)n2)cc1N` [Compound 322, N^1-(2-(dimethylamino)ethyl)-N^4-(4-(5-fluoro-1H-indol-3-yl)-5-(trifluoromethyl)pyrimidin-2-yl)-N^1-methylbenzene-1,2,4-triamine], `CN(C)CCN(C)c1ccc(Nc2ncc(C(F)(F)F)c(-c3cn(C)c4c(F)cccc34)n2)cc1N` [Compound 347, N^1-(2-(dimethylamino)ethyl)-N^4-(4-(7-fluoro-1-methyl-1H-indol-3-yl)-5-(trifluoromethyl)pyrimidin-2-yl)-N^1-methylbenzene-1,2,4-triamine] is 14-fold higher in IC50: 8.3 nM for the first, 114 nM for the second. The first is the more potent here.

First: CC(=O)Nc1cc(Nc2ncc(Cl)c(-c3cn(C)c4ccccc34)n2)ccc1N(C)CCN(C)C [Compound 395, N-(5-((5-chloro-4-(1-methyl-1H-indol-3-yl)pyrimidin-2-yl)amino)-2-((2-(dimethylamino)ethyl)(methyl)amino)phenyl)acetamide]
Second: CCN(C(=O)CN(C)C)c1ccc(Nc2ncc(Cl)c(-c3cn(C)c4ccccc34)n2)cc1NC(C)=O [Compound 405, N-(2-acetamido-4-((5-chloro-4-(1-methyl-1H-indol-3-yl)pyrimidin-2-yl)amino)phenyl)-2-(dimethylamino)-N-ethylacetamide]
The IC50 of the first is lower: 77.3 nM for the first, greater than 1000 nM for the second. The first is the more potent here.

Going from `CNc1cc(Nc2ncc(OC)c(-c3cn(C)c4ccccc34)n2)ccc1N(C)CCN(C)C` [Compound 275, N^1-(2-(dimethylamino)ethyl)-N^4-(5-methoxy-4-(1-methyl-1H-indol-3-yl)pyrimidin-2-yl)-N^1,N^2-dimethylbenzene-1,2,4-triamine] to `COc1nc(Nc2ccc(N(C)CCN(C)C)c(NC(C)=O)c2)nc(-c2cn(C)c3ccccc23)c1OC` [Compound 291a, N-(5-((4,5-dimethoxy-6-(1-methyl-1H-indol-3-yl)pyrimidin-2-yl)amino)-2-((2-(dimethylamino)ethyl) (methyl)amino)phenyl)acetamide], the IC50 rises from 600 nM to 8660 nM (14-fold).

`CC(=O)Nc1cc(Nc2nc3c(c(-c4cn(C)c5ccccc45)n2)CCO3)cc(F)c1N(C)CCN(C)C` [Compound 258b, N-(2-((2-(dimethylamino)ethyl)(methyl)amino)-3-fluoro-5-((4-(1-methyl-1H-indol-3-yl)-5,6-dihydrofuro[2,3-d]pyrimidin-2-yl)amino)phenyl)acetamide] and `CC(=O)Nc1cc(Nc2nc3c(c(-c4cn(C)c5ccccc45)n2)CCO3)ccc1N(C)CCN(C)C` [Compound 258a, N-(2-((2-(dimethylamino)ethyl)(methyl)amino)-5-((4-(1-methyl-1H-indol-3-yl)-5,6-dihydrofuro[2,3-d]pyrimidin-2-yl)amino)phenyl)acetamide] cannot be ordered by IC50: greater than 1000 nM for the first, greater than 1000 nM for the second.

`Cc1cccc2c(-c3nc(Nc4ccc(N5CC[C@@H](N(C)C)C5)c(N)c4)ncc3C(F)(F)F)c[nH]c12` [Compound R-367, (R)-4-(3-(dimethylamino)pyrrolidin-1-yl)-N^1-(4-(7-methyl-1H-indol-3-yl)-5-(trifluoromethyl)pyrimidin-2-yl)benzene-1,3-diamine] and `CN(C)[C@@H]1CCN(c2ccc(Nc3ncc(C(F)(F)F)c(-c4c[nH]c5c(F)cccc45)n3)cc2N)C1` [Compound R-345, (R)-4-(3-(dimethylamino)pyrrolidin-1-yl)-N^1-(4-(7-fluoro-1H-indol-3-yl)-5-(trifluoromethyl)pyrimidin-2-yl)benzene-1,3-diamine] are within 1.5-fold of each other in IC50: 5.7 nM for the first, 6.2 nM for the second.

Going from `CCN(CCN(C)C)c1ccc(Nc2ncc(C(F)(F)F)c(-c3cn(C)c4ccccc34)n2)cc1NC(C)=O` [Compound 309, N-(2-((2-(dimethylamino)ethyl)(ethyl)amino)-5-((4-(1-methyl-1H-indol-3-yl)-5-(trifluoromethyl)pyrimidin-2-yl)amino)phenyl)acetamide] to `CC(=O)Nc1cc(Nc2ncc(C(F)(F)F)c(-c3cn(C)c4ccccc34)n2)ccc1N(CCN(C)C)C(C)=O` [Compound 314a, N-(2-acetamido-4-((4-(1-methyl-1H-indol-3-yl)-5-(trifluoromethyl)pyrimidin-2-yl)amino)phenyl)-N-(2-(dimethylamino)ethyl)acetamide], the IC50 falls from 135 nM to 63.2 nM (2.1-fold). The second is the more potent here.

`CN1CCN(c2ccc(C(=O)Nc3c[nH]c4ccc(Nc5cc(F)cc(F)c5)cc34)c(NC3CCOCC3)c2)CC1` [Compound 497, N-(5-((3,5-difluorophenyl)amino)-1H-indol-3-yl)-4-(4-methylpiperazin-1-yl)-2-((tetrahydro-2H-pyran-4-yl)amino)benzamide] and `CC(=O)Nc1cc(Nc2nc(-c3c[nH]c4ccccc34)ncc2C(F)(F)F)cc(F)c1N(C)CCN(C)C` [Compound 299b, N-(5-((2-(1H-indol-3-yl)-5-(trifluoromethyl)pyrimidin-4-yl)amino)-2-((2-(dimethylamino)ethyl)(methyl)amino)-3-fluorophenyl)acetamide] are within 1.5-fold of each other in IC50: 4030 nM for the first, 3380 nM for the second.

First: CC(=O)Nc1cc(Nc2nc3c(c(-c4cn(C)c5ccccc45)n2)COCC3)ccc1N(C)CCN(C)C [Compound 257a, N-(2-((2-(dimethylamino)ethyl)(methyl)amino)-5-((4-(1-methyl-1H-indol-3-yl)-7,8-dihydro-5H-pyrano[4,3-d]pyrimidin-2-yl)amino)phenyl)acetamide]
Second: CC(=O)Nc1cc(Nc2nc(-c3cn(C)c4ccccc34)c3occc3n2)ccc1N(C)CCN(C)C [Compound 256a, N-(2-((2-(dimethylamino)ethyl)(methyl)amino)-5-((4-(1-methyl-1H-indol-3-yl)furo[3,2-d]pyrimidin-2-yl)amino)phenyl)acetamide]
The IC50 of the first is higher: greater than 10000 nM for the first, 447 nM for the second. The second is the more potent here.

Compared with `COc1cnc(Nc2ccc(N(C)CCN(C)C)c(NC(C)=O)c2)nc1-c1cn(C)nc1C` [Compound 289, N-(5-((4-(1,3-dimethyl-1H-pyrazol-4-yl)-5-methoxypyrimidin-2-yl)amino)-2-((2-(dimethylamino)ethyl)(methyl)amino)phenyl)acetamide], `CC(=O)Nc1cc(Nc2ncc(C(F)(F)F)c(-c3cn(C)c4c(F)cccc34)n2)ccc1N(C)CCN(C)C` [Compound 346, N-(2-((2-(dimethylamino)ethyl)(methyl)amino)-5-((4-(7-fluoro-1-methyl-1H-indol-3-yl)-5-(trifluoromethyl)pyrimidin-2-yl)amino)phenyl)acetamide] is lower in IC50: greater than 10000 nM for the first, 105 nM for the second.

First: CCN(C(=O)CN(C)C)c1ccc(Nc2ncc(Cl)c(-c3c[nH]c4ccccc34)n2)cc1N [Compound 448, N-(2-amino-4-((5-chloro-4-(1H-indol-3-yl)pyrimidin-2-yl)amino)phenyl)-2-(dimethylamino)-N-ethylacetamide]
Second: CCN(CCN(C)C)c1ccc(Nc2nc(-c3cn(C)c4ccccc34)c3cc[nH]c3n2)cc1N [Compound 211, N^1-(2-(dimethylamino)ethyl)-N^1-ethyl-N^4-(4-(1-methyl-1H-indol-3-yl)-7H-pyrrolo[2,3-d]pyrimidin-2-yl)benzene-1,2,4-triamine]
The IC50 of the first is higher: greater than 1000 nM for the first, 40.3 nM for the second. The second is the more potent here.

`CCN(CCN(C)C)c1ccc(Nc2nc(-c3cn(C)c4ccccc34)c3cc[nH]c3n2)cc1NC` [Compound 197, N^1-(2-(dimethylamino)ethyl)-N^1-ethyl-N^2-methyl-N^4-(4-(1-methyl-1H-indol-3-yl)-7H-pyrrolo[2,3-d]pyrimidin-2-yl)benzene-1,2,4-triamine] and `CN(C)CCN(C)c1ccc(Nc2ncc(C(F)(F)F)c(-c3cn(C)c4ccc(F)cc34)n2)cc1NCC(F)(F)F` [Compound 327, N^1-(2-(dimethylamino)ethyl)-N^4-(4-(5-fluoro-1-methyl-1H-indol-3-yl)-5-(trifluoromethyl)pyrimidin-2-yl)-N^1-methyl-N^2-(2,2,2-trifluoroethyl)benzene-1,2,4-triamine] are within 1.5-fold of each other in IC50: 376 nM for the first, 260 nM for the second.

Compared with `COc1cccc2c(-c3nc(Nc4ccc5c(c4)nc(C)n5CCN(C)C)ncc3C(F)(F)F)c[nH]c12` [Compound 380, 1-(2-(dimethylamino)ethyl)-N-(4-(7-methoxy-1H-indol-3-yl)-5-(trifluoromethyl)pyrimidin-2-yl)-2-methyl-1H-benzo[d]imidazol-5-amine], `Cc1cccc2c(-c3nc(Nc4ccc5c(c4)nc(C)n5CCN(C)C)ncc3C(F)(F)F)cn(C)c12` [Compound 371, N-(4-(1,7-dimethyl-1H-indol-3-yl)-5-(trifluoromethyl)pyrimidin-2-yl)-1-(2-(dimethylamino)ethyl)-2-methyl-1H-benzo[d]imidazol-5-amine] is 2.2-fold higher in IC50: 50.5 nM for the first, 110 nM for the second.

`COc1cccc2c(-c3nc(Nc4ccc(N(C)CCN(C)C)c(N)c4)ncc3C(F)(F)F)cn(C)c12` [Compound 385, N^1-(2-(dimethylamino)ethyl)-N^4-(4-(7-methoxy-1-methyl-1H-indol-3-yl)-5-(trifluoromethyl)pyrimidin-2-yl)-N^1-methylbenzene-1,2,4-triamine] showed an IC50 of 45.3 nM.

Same assay, conditions: KM12-luc cells, treated with test compounds for 72 hrs, CCK-8 viability; read-out: NTRK IC50 in KM12-luc

First: Cc1cccc2c(-c3nc(Nc4ccc(N5CC[C@H](N(C)C)C5)c(N)c4)ncc3Cl)cn(C)c12 [Compound S-431, (S)—N-(5-chloro-4-(1,7-dimethyl-1H-indol-3-yl)pyrimidin-2-yl)-4-(3-(dimethylamino)pyrrolidin-1-yl)benzene-1,3-diamine]
Second: COc1cccc2c(-c3nc(Nc4ccc(N5CC[C@@H](N(C)C)C5)c(N)c4)ncc3Cl)cn(C)c12 [Compound R-420, (R)—N^1-(5-chloro-4-(7-methoxy-1-methyl-1H-indol-3-yl)pyrimidin-2-yl)-4-(3-(dimethylamino)pyrrolidin-1-yl)benzene-1,3-diamine]
The IC50 of the first is 1.8-fold lower: 39.6 nM for the first, 72 nM for the second. The first is the more potent here.
